Results on one compound are retold here after ChEMBL document CHEMBL1150704, “Microbial hydroxylation of quadrone to 8a-hydroxyquadrone” (J Nat Prod, 1987).

Structures are written as SMILES. Calls of active or inactive are those of the source. The rule behind the calls is not given here.

The test has as its system P388. Briefly: Cytotoxicity against mouse P388 cells. It is filed as functional, cell-based.

With `CC1(C)C[C@@]23[C@@H]4CC(=O)[C@@H]2COC(=O)[C@]3(O)CC[C@H]41`, the outcome was inactive.
